Experimental data reported in patent US8883763B2 (Universite Joseph Fourier, priority 2010, dated 2014).

Tests used:
PP1 and PP2A = settings: cited from earlier work
[1] = trials discontinued; cited from earlier work
bovine brain tubulin = experiment: In vitro tubulin polymerization test (turbidimetry at 350 nm); assay type: biochemical; settings: molecules at 50 μM, calculated at t=3000 s, DMSO control = 100%
Procedure, shortened: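 Bovine brain tubulin was assembled at 37 °C in BRB80 (80 mM K-PIPES pH 6.8, 1 mM MgCl2, 1 mM EGTA) with 1 mM GTP. The 50 μM tests used compounds at 50 μM, run in triplicate. Turbidity at 350 nm was read at t=3000 s and expressed relative to control taken as 100%.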

PP1C = experiment: Affinity chromatography on immobilized compound and immunoblotting; assay type: binding, Xenopus laevis; settings: Xenopus egg extracts; immunoblot anti-PP1C and anti-PP2A; PP2A only traces as in control
Method: Xenopus egg cytoplasmic extracts were prepared from unfertilized Xenopus laevis eggs according to the method described (Desai A et al., Methods Cell Biol. 1999; 61: pp 385-412).
The molecule 37 was immobilized on a sepharose resin activated by an N-hydroxysuccinimide (NHS) group (GE Healthcare #17-0906-01) as follows: 100 μg of the molecule 37 per ml of NHS Sepharose in PBS, pH 8.3, for 1 hour at ambient temperature. The sepharose coupled with molecule 37 was designated “compound 6” resin, whereas in parallel, another “control” resin was produced with incubation in 0.5 M Monoethanolamine (MEA), pH 8.3, under the same conditions, in order to neutralize the NHS functions. After several washings with PBS, pH 8.3, the NHS functions remaining free were blocked with 0.5 M MEA for 30 minutes. Once they had been thoroughly washed with PBS, the “control” and “compound 6” resins were incubated with 1 ml of Xenopus egg extracts diluted 1:1 in CSF-XB buffer containing protease inhibitors (#1 873 580 Roche®), for 1 hour under stirring at 4° C. After 2 washings with PBST, the proteins of the extract remaining attached were eluted with 100 μl of electrophoresis SDS charge buffer (Laemmli, U.K., Cleavage of structural proteins during the assembly of the head of bacteriophage T4. Nature 1970; 227, 680-685) enriched with 6M urea. […]

HMEC cells = experiment: Proliferation of HMEC cells (GI50); assay type: cell-based; settings: Homo sapiens, 120 h, 50 μM to 1 nM for 5 days
Procedure, shortened: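 Cells seeded at 1,000/well (10% confluence) and exposed 5 days (120 h) to compound from 1 nM up to 50–100 μM. Live cells counted by Hoechst 33342 staining under fluorescence microscopy; GI50 is concentration halving proliferation versus control, mean of two triplicate experiments.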

HeLa cells [2] = experiment: Indirect immunofluorescence: effect on HeLa cells (mitotic arrest, microtubule depolymerization); assay type: cell-based, human; set-up: key to Effect on Hela at 25 μM / Effect on Hela at 100 μM / Effect on Hela at 50 and 100 μM / Effect on Hela at 50 μM: —: −: no activity on the cells at 25 μM (if there is an effect at high concentrations, this is specified in the table).; *: weak activity (MA and/or slight depolymerization of the MTs and/or slight inhibition of proliferation),; **: average activity (MA and/or moderate depolymerization of the MTs and/or moderate inhibition of proliferation),; ***: strong activity (MA and/or pronounced depolymerization of the MTs and/or pronounced inhibition of proliferation),; ****: very strong activity (MA and/or very pronounced depolymerization of the MTs and/or strong inhibition of proliferation); settings: 24 hours; for Effect on Hela at 25 μM: mitotic index and/or depolymerization of the MTs
Procedure, shortened: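 HeLa cells exposed 24 h to compound (100 μM to 50 nM; primary series 1–10 μM), DMSO controls. PFA/glutaraldehyde-fixed cells immunostained for α-tubulin, actin (phalloidin) and DNA (Hoechst); fluorescence microscopy scored phenotypes and mitotic index, with mitotic index and/or MT depolymerization evaluated at 25 μM.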

PP1α (PP1CA) = molecular target: T1, PP1α (PP1CA) (Oryctolagus cuniculus, UniProt P62139); experiment: Protein phosphatase test (PP1 activity, DiFMUP fluorescent substrate); assay type: biochemical; settings: PP1CA at 80 mU, fluorescent substrate (50 μM), molecules from 50 μM to 50 nM; read-out: PP1 Inhibition IC50
T1 construct: purchased New England Biolabs P0754
Procedure, shortened: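 PP1α (30 or 80 mU) in 100 mM Tris-HCl pH 7.5, 4 mM DTT, 0.2 mM EDTA, 0.5 mM MnCl2 was preincubated 15 min with compound (50 μM to 50 nM), then given 60 μM DiFMUP for 20 min at 37 °C. Phosphatase activity was read as fluorescence at 355-460 nm, three times in duplicate.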

[3] = due to its structural instability; cited from earlier work
HeLa cells [4] = experiment: Comparative tests with INH2BP: antiproliferative activity; assay type: cell-based, human; settings: 50 μM
Method: The cells were seeded in 96-well plates (1,000 per well) and incubated with different concentrations of compound 6 (1 nM to 100 μM), for 5 days (120 hours). At the end of this incubation, Hoechst 33342 (1 μg/ml) was added to the culture medium and the live cells were counted under a fluorescence microscope (Zeiss Axiovert 200M). The data represents the average of two independent experiments during which 10 fields chosen at random were analyzed for each concentration of compound 6, themselves produced in triplicate.

T1 sequence (P62139 whole entry): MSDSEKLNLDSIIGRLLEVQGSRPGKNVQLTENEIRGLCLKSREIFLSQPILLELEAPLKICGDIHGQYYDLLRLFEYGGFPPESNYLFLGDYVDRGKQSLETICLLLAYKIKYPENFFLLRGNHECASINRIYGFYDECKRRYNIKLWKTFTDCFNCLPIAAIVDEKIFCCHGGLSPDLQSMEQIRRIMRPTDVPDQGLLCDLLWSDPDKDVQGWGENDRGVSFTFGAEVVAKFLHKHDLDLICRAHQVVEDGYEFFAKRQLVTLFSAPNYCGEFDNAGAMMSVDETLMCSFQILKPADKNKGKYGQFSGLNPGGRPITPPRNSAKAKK

Compound | Tubulin polymerization inhibition (bovine brain tubulin) | GI50 (HMEC cells) | Effect on Hela at 25 μM (HeLa cells [2]) | IC50 (PP1α (PP1CA)) | melting point | also measured
tautomycetin |  |  |  |  |  | selectivity for PP1 relative to PP2A (PP1 and PP2A): 40 times
C[C@@]12C(=O)OC(=O)[C@]1(C)[C@H]1CC[C@@H]2O1 [cantharidin] |  |  |  |  |  | toxicity in clinical trials [1]: too-high nephrotoxicity
COc1ccc2c([N+](=O)[O-])c(-c3ccc(OCCOCCOCCOCCN)cc3)[nH]c(=O)c2c1 [Compound 37, 3-(4-(2-(2-(2-(2-Aminoethoxy)ethoxy)ethoxy)ethoxy)phenyl)-7-methoxy-4-nitroisoquinolin-1(2H)-one] | — ((−) signifies that the molecule induces little or no tubulin assembly inhibition in vitro: 0+ or − −5% of the DMSO control.) | 25 to 50 µM | — | > 50 µM |  | retention of PP1C by compound immobilized on sepharose resin (PP1C): specifically retains PP1C
C[C@@](O)(/C=C/[C@H]1CC=CC(=O)O1)[C@@H](C[C@@H](O)\C=C/C=C\C=C\CO)OP(=O)(O)O [fostriecin] |  |  |  |  |  | activity in phase I clinical trial [3]: inactive; selectivity for PP2A (PP1 and PP2A; PP2A relative to PP1): 40,000 times
CO[C@H]([C@H](O)CC(=O)[C@@H](C)[C@@H](O)CC[C@@H](C)[C@@H]1O[C@]2(CC[C@@H](C)[C@H](CC[C@H](C)C(C)=O)O2)CC[C@@H]1C)[C@H](OC(=O)C[C@@H](O)C1=C(C)C(=O)OC1=O)C(C)C [tautomycin] |  |  |  |  |  | selectivity for PP1 relative to PP2A (PP1 and PP2A): 4 times
Nc1ccc2oc(=O)ccc2c1I [INH2BP, 5-iodo-6-amino-1,2-benzopyrone] |  |  |  |  |  | antiproliferative activity on HeLa cells (HeLa cells [4]): no antiproliferative activity
Phosphatidic acid |  |  |  |  |  | selectivity for PP1 relative to PP2A (PP1 and PP2A): 100 times
COC(=O)c1nnn(-c2c(-c3ccc(OC)cc3)[nH]c(=O)c3cc(OC)ccc23)c1C(=O)OC [Compound 48, Dimethyl 1-[7-methoxy-3-(4-methoxyphenyl)-1-oxo-1,2-dihydroisoquinolin-4-yl]-1H-[1,2,3]triazole-4,5-dicarboxylate] | — ((−) signifies that the molecule induces little or no tubulin assembly inhibition in vitro: 0+ or − −5% of the DMSO control.) | 25 to 50 µM | — | > 50 µM | 220 °C | Effect on Hela at 50 μM (HeLa cells [2]; 50 μM): *
COc1ccc(-c2c([N+](=O)[O-])c3ccc(OC)cc3c(=O)n2CC#N)cc1 [Compound 30, 2-(7-Methoxy-3-(4-methoxyphenyl)-4-nitro-1-oxoisoquinolin-2(1H)-yl)ethanenitrile] | + ((+) signifies that the molecule induces tubulin assembly inhibition in vitro comprised between 6 and 25% of the DMSO control.) | > 50 µM | — | ≥ 50 µM | 194 to 196 °C | 
COc1ccc(-c2[nH]c(=S)c3cc(OC)ccc3c2[N+](=O)[O-])cc1 [Compound 18, 7-Methoxy-3-(4-methoxyphenyl)-4-nitroisoquinoline-1(2H)-thione] | +++ ((+++) signifies that the molecule induces tubulin assembly inhibition in vitro of more than 50% with respect to the DMSO control.) | 1 to 25 µM | **** | 10 to 24 µM | 226 to 228 °C | 
COc1ccc(-c2[nH]c(=O)c3cc(OC)ccc3c2N(C)C)cc1 [Compound 23, 4-(Dimethylamino)-7-methoxy-3-(4-methoxyphenyl)isoquinoline-1(2H)-one] | + ((+) signifies that the molecule induces tubulin assembly inhibition in vitro comprised between 6 and 25% of the DMSO control.) | 1 to 25 µM | *** | > 50 µM | 183 to 185 °C | 
